# Test results: patent US6517856B1, “Insecticide resistance assay” (priority 1998, dated 2003)
# Values joined by “and” are separate entries in the source; they are usually repeats but may differ in a detail not shown here. Identical values can stand only once.
# Tests used:
# [1] = test system: tobacco budworm (H. virescens); assay: Feeding disruption assay, CryIAc in Trypan Blue diet (fresh diet); type: in vivo, Heliothis virescens
# Protocol: The blue diet used in the feeding disruption bioassay is an agar based insect meal containing 20 mg of Trypan Blue (Direct Blue 14; Matheson Coleman & Bell, Norwood, Ohio) per 100 ml of standard artificial diet, and containing different concentrations of CryIAc (MVP, Mycogen). Larvae feeding on this colored diet produced blue feces which were easily distinguished by observation from feces derived from other food sources. Assays were conducted in 1-ounce clear plastic cups (Solo Cup Company, Urbana, Ill.; approximately […] in diameter and ¾ inches high) fitted with white cardboard tops, which are routinely used for insect rearing in the inventors' laboratories. The clear plastic allowed for the observation of blue feces without opening the container.
# Third instars from Wake (Bt susceptible), YHD2 (Bt resistant), and YHD2×Wake hybrid strains of the tobacco budworm (H. virescens) were used. Instars weighed 30±5 mg and were reared either on standard artificial diet or cotton plants. Instars were starved for one hour and then transferred to clear plastic assay cups, one larvae per cup. The starvation treatment synchronized the beginning of feeding between individuals once transferred to the dye-containing diet. The effect of different concentrations of CryIAc (0 to 0.064 μg CryIAc/ml diet) on the production of blue feces was examined for one to 24 hours at 27±1° C. and […] (light:dark). Studies were conducted in triplicate with 15 larvae per replicate. Once a diagnostic concentration and optimum assay time were identified from these experiments, the accuracy of resistance detection was investigated for individual resistant and susceptible neonates of H. virescens. These experiments were duplicated for 25 resistant and 25 susceptible budworms from two different budworm generations.
# The diagnostic concentration for resistance detection was also investigated for its ability to distinguish Wake susceptible H. virescens from H. zea. In addition, dose response studies were conducted to identify a concentration of Bt that would distinguish resistant YHD2 neonates of H. virescens from H. zea. Dose response studies were duplicated for 25 resistant (HD2) tobacco budworms and 25 bollworms from two generations at different doses of Bt ranging from 0 to 1000 μg CryIAc/ml of blue diet.
# [2] = test system: H. virescens; assay: Seven day mortality assay on neonates, CryIAc in artificial diet
# Protocol: Insects were reared in the laboratory at 27±1° C. with a 14:10 (light:dark) cycle on a standard artificial diet (Gould et al., 1995; Rose et al., 1995). The Wake strain of H. virescens used was originally collected in 1986 from tobacco in Wake county, N.C. The YHD2 strain was originally collected as eggs from seven tobacco fields in Yadkin County, N.C., in July of 1988. The YHD2 larvae were reared each generation for about seven days from egg hatch on 1000 μg of Bt toxin CryIAc (MVP, commercial grade, >98.0% δ endotoxin, Mycogen Corporation, San Diego) per ml of artificial diet and then transferred to insecticide-free diet for the remainder of development.
# Mortality data were analyzed using probit analysis (PROC PROBIT, SAS 1991).
# [3] = Wake third instars, 0.008 μg/ml, 24 hours
# [4] = Wake third instars, 0.032 μg CryIAc/ml diet, 24 hours
# [5] = Wake third instars, 0.032 μg CryIAc/ml, 4 hours
# [6] = Wake third instars, 0.032 μg CryIAc/ml, 8 hours
# [7] = YHD2 third instars, 0.008 μg/ml, 24 hours
# [8] = YHD2 third instars, 0.032 μg CryIAc/ml diet, 24 hours
# [9] = YHD2 third instars, 0.032 μg CryIAc/ml, 4 hours
# [10] = YHD2 third instars, 0.032 μg CryIAc/ml, 8 hours
# [11] = YHD2×Wake hybrid third instars, 0.032 μg/ml, 24 hours
substance,measurement,setting,value
"CryIAc: Bacillus thuringiensis CryIAc δ-endotoxin, commercial formulation MVP (Mycogen), >98.0% δ endotoxin",blue fecal pellets per larva,[1]; [3],4 /larva
same,total blue fecal pellets,[1]; [3],63 fecal pellets/15 larvae
same,blue fecal pellets per larva,[1]; [4],0.8 /larva
same,total blue fecal pellets,[1]; [4],12 fecal pellets/15 larvae
same,blue fecal pellets per larva,[1]; [5],0.1 /larva
same,total blue fecal pellets,[1]; [5],1.6 fecal pellets/15 larvae
same,blue fecal pellets per larva,[1]; [6],0.3 /larva
same,total blue fecal pellets,[1]; [6],5 fecal pellets/15 larvae
same,percentage of larvae that had produced blue feces,"[1]; Wake third instars, 0.032 μg CryIAc/ml, after 14 hours, ±1 SE",2.2±3.9%
same,minimum fecal production by any individual,"[1]; YHD2 neonates, 500 μg CryIAc/ml blue diet, 24 hours",five
same,fecal pellets produced per 15 larvae,"[1]; YHD2 third instars reared on cotton, 0.032 μg CryIAc/ml Blue diet, 24 hours",> 140 fecal pellets per 15 larvae
same,blue fecal pellets per larva,[1]; [7],53 /larva
same,total blue fecal pellets,[1]; [7],800 fecal pellets/15 larvae
same,blue fecal pellets per larva,[1]; [8],31 /larva
same,total blue fecal pellets,[1]; [8],470 fecal pellets/15 larvae
same,blue fecal pellets per larva,[1]; [9],3 /larva
same,total blue fecal pellets,[1]; [9],46 fecal pellets/15 larvae
same,blue fecal pellets per larva,[1]; [10],9 /larva
same,total blue fecal pellets,[1]; [10],129 fecal pellets/15 larvae
same,percentage producing one or more blue fecal pellets,"[1]; YHD2 third instars, 0.032 μg CryIAc/ml, in 5 hours, ±1 SE",85±3.9%
same,percentage producing one or more blue fecal pellets,"[1]; YHD2 third instars, 0.032 μg CryIAc/ml, in 9 hours, ±1 SE",95±3.9%
same,percentage producing one or more blue fecal pellets,"[1]; YHD2 third instars, 0.032 μg CryIAc/ml, in 14 hours, ±1 SE",100.0±0.0%
same,blue fecal pellets per larva,[1]; [11],5 /larva
same,total blue fecal pellets,[1]; [11],68 fecal pellets/15 larvae
same,percentage producing 0-2 fecal pellets in 24 h,"[1]; laboratory susceptible H. virescens strain, 0.032 μg MVP per ml diet",88.0%
same,number of H. virescens producing six blue fecal pellets (the maximum),"[1]; susceptible (Wake) neonates, 0.032 μg CryIAc/ml diet, 24 hour",1 out of 50
same,blue feces production,"[1]; susceptible (Wake) third instars reared on cotton, 0.032 μg CryIAc/ml Blue diet",Essentially no blue feces were produced
same,LC50,"[2]; Wake strain, neonates, seven day mortality",0.0017 μg CryIAc/ml diet
same,LC50,[2]; YHD2(female)×Wake(male) hybrid F1 larvae,0.129 μg CryIAc/ml diet
same,LC50,"[2]; YHD2 strain, neonates, seven day mortality",2952 μg CryIAc/ml diet and 2952.0 μg CryIAc/ml diet
